Assay results taken from PubChem BioAssay AID1963827 (Molecular Pharmacology Branch, DTP, NCI, 2024).

Tested on: 994946-033-R-J1-PDC complex spheroid viability
Test: Anticancer human tumor 994946-033-R-J1-PDC patient-derived melanoma cell line growth inhibition [POLQ]
Settings: for IC50: curve of first compound; for viability, T/C: stronger effect = lower value
Experimental: Multicellular complex tumor spheroid response to Polymerase (POL) inhibitors (novobiocin, ART-558, RP6685) in combination with a variety of drugs and investigational agents in selected tumor cell lines
The POL inhibitors (novobiocin, ART-558, and RP6685) were evaluated both individually and in combination with standard of care and investigational anticancer small molecules within a complex spheroid model of solid tumors. . Complex spheroids include a stromal component modeled by human endothelial cells (HUVEC) and fibroblasts modeled by human mesenchymal stem cells (MSCs). The concentration ranges selected for each drug and investigational agent were based upon clinically achievable concentrations if the clinical Cmax of the agent was known.
Compounds. The drugs and investigational agents: novobiocin (NSC847541), ART-558 (NSC835418), RP-6685 (NSC848927), peposertib (NSC802822), ceralasertib (NSC780249), elimusertib (NSC800525), camonsertib (NSC841442), AZD-1390 (NSC803789), olaparib (NSC753686), talazoparib (NSC767125), rucaparib (NSC756644), sotorasib (NSC818433), MRTX-1133 (NSC836407), SN-38 (NSC673596), topotecan (NSC609699), epotoside (NSC141540), doxorubicin (NSC123127), gemcitabine (NSC613327), 5-fluorouracil (NSC19893), paclitaxel (NSC125973), vemurafenib (NSC761431), MSA-2 (NSC828583), SN-011 (NSC837082), adavosertib (NSC754352), prexasertib (NSC758257), carboplatin (NSC241240) and oxaliplatin (NSC266046), were obtained from the National Cancer Institute (NCI) Developmental Therapeutics Program Chemical Repository (21). The FDA-approved anticancer drug set is available from the Developmental Therapeutics Program at https://dtp.cancer.gov/organization/dscb/obtaining/. […] The stock solutions were prepared in dimethyl sulfoxide (DMSO, Sigma-Aldrich, St. Louis, MO, cat. D2650), except for the platinum compounds which were prepared in saline (Quality Biological, Gaithersburg, MD, cat. 114-055-101), at 800-fold the tested concentration and stored at -70 degrees C prior to their use. All drugs and investigational agents were tested over a range starting from a high concentration at or near the clinical Cmax and decreasing in half-log increments. If the clinical Cmax for an agent had not been determined, the highest concentration tested was 10 microM, except for SN-38, which was tested at a high concentration of 1 microM.
Cell Culture. All cells were maintained in an incubator at 37 degrees C and 5% CO2 with 95% humidity. The PDC lines were cultured according to standard operating procedures established by the NCI PDMR (https://pdmr.cancer.gov). Table 3 of the manuscript, lists the cell lines along with the number of the three cell types plated to form the mct-spheroids and media for tumor cell growth. After thawing, all PDC lines, except 997537-175-T-J1-PDC and 415267-285-R-J2-PDC, were cultured in Matrigel-coated flasks prepared with a working solution of 1X Ham's F-12 nutrient mix, without supplementation (Thermo Fisher Scientific, cat. 11765054), 100 U/mL penicillin-streptomycin (Thermo Fisher Scientific, cat. 15140122), and 2.5% Matrigel (Corning Inc., Corning, NY, cat. 354248) for the first three passages. The two PDC lines 997537-175-T-J1-PDC and 415267-285-R-J2-PDC were cultured on uncoated flasks. The 857933-349-R-J2-PDC line was cultured in 6C/Colon 1B media containing advanced DMEM/F-12 (Thermo Fisher Scientific, cat. 12634028), 10 mM HEPES (Thermo Fisher Scientific, cat. 15630080), 1X GlutaMAX supplement (Thermo Fisher Scientific, cat. 35050061), 0.1 mg/mL primocin (InvivoGen, San Diego, CA, cat. ant-pm-2), 10% defined fetal bovine serum, heat inactivated (HyClone Laboratories Inc., Logan, UT, cat. SH30070.03HI), 50% L-WRN conditioned media (ATCC, cat. CRL-3276), 1.25 mM N-Acetyl-L-cysteine (Sigma-Aldrich, cat. A9165), 10 mM nicotinamide (Sigma-Aldrich, cat. N0636), 1X B-27 supplement (Thermo Fisher Scientific, cat. 17504044), 1X N-2 supplement (Thermo Fisher Scientific, cat. […]

[1] = second compound 0.0316 µM, first compound 0.0316 µM
[2] = second compound 0.0316 µM, first compound 0.1 µM
[3] = second compound 0.0316 µM, first compound 0.316 µM
[4] = second compound 0.0316 µM, first compound 1 µM
[5] = second compound 0.0316 µM, first compound 3.16 µM
[6] = second compound 0.0316 µM, first compound 10 µM
[7] = second compound 0.1 µM, first compound 0.0316 µM
[8] = second compound 0.1 µM, first compound 0.1 µM
[9] = second compound 0.1 µM, first compound 0.316 µM
[10] = second compound 0.1 µM, first compound 1 µM
[11] = second compound 0.1 µM, first compound 3.16 µM
[12] = second compound 0.1 µM, first compound 10 µM
[13] = second compound 0.316 µM, first compound 0.0316 µM
[14] = second compound 0.316 µM, first compound 0.1 µM
[15] = second compound 0.316 µM, first compound 0.316 µM
[16] = second compound 0.316 µM, first compound 1 µM
[17] = second compound 0.316 µM, first compound 3.16 µM
[18] = second compound 0.316 µM, first compound 10 µM
[19] = second compound 1 µM, first compound 0.0316 µM
[20] = second compound 1 µM, first compound 0.1 µM
[21] = second compound 1 µM, first compound 0.316 µM
[22] = second compound 1 µM, first compound 1 µM
[23] = second compound 1 µM, first compound 3.16 µM
[24] = second compound 1 µM, first compound 10 µM
[25] = second compound 3.16 µM, first compound 0.0316 µM
[26] = second compound 3.16 µM, first compound 0.1 µM
[27] = second compound 3.16 µM, first compound 0.316 µM
[28] = second compound 3.16 µM, first compound 1 µM
[29] = second compound 3.16 µM, first compound 3.16 µM
[30] = second compound 3.16 µM, first compound 10 µM
[31] = second compound 10 µM, first compound 0.0316 µM
[32] = second compound 10 µM, first compound 0.1 µM
[33] = second compound 10 µM, first compound 0.316 µM
[34] = second compound 10 µM, first compound 1 µM
[35] = second compound 10 µM, first compound 3.16 µM
[36] = second compound 10 µM, first compound 10 µM
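Also: spheroids exposed to drugs for 7 days.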
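For viability, T/C in this document: 100% = DMSO vehicle treated spheroids.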

**Q.** Which results are given for `C=CC(=O)N1CCN(c2nc(=O)n(-c3c(C)ccnc3C(C)C)c3nc(-c4c(O)cccc4F)c(F)cc23)C(C)C1` (centres undefined) + Cc1cccc(N(C)C(=O)C2C(O)CCN2c2nc(C)cc(C(F)(F)F)c2C#N)c1?
**A.** IC50 (second compound 0.0316 µM): > 10 µM; IC50 (second compound 0.1 µM): > 10 µM; IC50 (second compound 0.316 µM): > 10 µM; IC50 (second compound 1 µM): > 10 µM; IC50 (second compound 3.16 µM): > 10 µM; IC50 (second compound 10 µM): > 10 µM; viability, T/C [1]: 75.8%; viability, T/C [2]: 101%; viability, T/C [3]: 112%; viability, T/C [4]: 126%; viability, T/C [5]: 110%; viability, T/C [6]: 132%; viability, T/C [7]: 94.5%; viability, T/C [8]: 118%; viability, T/C [9]: 129%; viability, T/C [10]: 123%; viability, T/C [11]: 119%; viability, T/C [12]: 113%; viability, T/C [13]: 115%; viability, T/C [14]: 114%; viability, T/C [15]: 94.2%; viability, T/C [16]: 140%; viability, T/C [17]: 123%; viability, T/C [18]: 93.8%; viability, T/C [19]: 113%; viability, T/C [20]: 109%; viability, T/C [21]: 91.1%; viability, T/C [22]: 107%; viability, T/C [23]: 90.2%; viability, T/C [24]: 93.9%; viability, T/C [25]: 130%; viability, T/C [26]: 104%; viability, T/C [27]: 132%; viability, T/C [28]: 119%; viability, T/C [29]: 105%; viability, T/C [30]: 129%; viability, T/C [31]: 84.7%; viability, T/C [32]: 101%; viability, T/C [33]: 105%; viability, T/C [34]: 115%; viability, T/C [35]: 96.3%; viability, T/C [36]: 106%

**Q.** How did the IC50 (second compound 0.0316 µM) turn out when `C#Cc1c(F)ccc2cc(O)cc(-c3ncc4c(N5CC6CCC(C5)N6)nc(OCC56CCCN5CC(F)C6)nc4c3F)c12` (centres undefined) + Nc1ccc(C#CCN(C(=O)Cc2ncc(C(F)(F)F)cc2C(F)(F)F)c2ccc(F)cc2)nn1 was run?
**A.** 4.28 µM

**Q.** What about the IC50 (second compound 0.1 µM) of the same compound?
**A.** 5.46 µM

**Q.** And the IC50 (second compound 0.316 µM)?
**A.** 5.99 µM

**Q.** And the IC50 (second compound 1 µM)?
**A.** 3.66 µM

**Q.** What about the IC50 (second compound 3.16 µM) of the same compound?
**A.** 5.38 µM

**Q.** What about the IC50 (second compound 10 µM) of the same compound?
**A.** 5.09 µM

**Q.** And the viability, T/C [1]?
**A.** 101%

**Q.** What about the viability, T/C [2] of the same compound?
**A.** 109%

**Q.** What about the viability, T/C [3] of the same compound?
**A.** 91.9%

**Q.** And the viability, T/C [4]?
**A.** 82.5%

**Q.** What about the viability, T/C [5] of the same compound?
**A.** 67.2%

**Q.** And the viability, T/C [6]?
**A.** 11.7%

**Q.** And the viability, T/C [7]?
**A.** 90.2%

**Q.** And the viability, T/C [8]?
**A.** 88.9%

**Q.** And the viability, T/C [9]?
**A.** 97.8%

**Q.** What about the viability, T/C [10] of the same compound?
**A.** 74.1%

**Q.** And the viability, T/C [11]?
**A.** 81%

**Q.** What about the viability, T/C [12] of the same compound?
**A.** 19.1%

**Q.** And the viability, T/C [13]?
**A.** 100%

**Q.** What about the viability, T/C [14] of the same compound?
**A.** 84.7%

**Q.** And the viability, T/C [15]?
**A.** 74.8%

**Q.** What about the viability, T/C [16] of the same compound?
**A.** 96.2%

**Q.** What about the viability, T/C [17] of the same compound?
**A.** 84.1%

**Q.** And the viability, T/C [18]?
**A.** 22.3%

**Q.** And the viability, T/C [19]?
**A.** 80.6%

**Q.** And the viability, T/C [20]?
**A.** 89.8%

**Q.** And the viability, T/C [21]?
**A.** 90.1%

**Q.** And the viability, T/C [22]?
**A.** 66.5%

**Q.** And the viability, T/C [23]?
**A.** 59.8%

**Q.** What about the viability, T/C [24] of the same compound?
**A.** 5.38%

**Q.** What about the viability, T/C [25] of the same compound?
**A.** 74.4%

**Q.** What about the viability, T/C [26] of the same compound?
**A.** 85.1%

**Q.** What about the viability, T/C [27] of the same compound?
**A.** 102%

**Q.** And the viability, T/C [28]?
**A.** 79.1%

**Q.** And the viability, T/C [29]?
**A.** 81.1%

**Q.** What about the viability, T/C [30] of the same compound?
**A.** 13.7%

**Q.** What about the viability, T/C [31] of the same compound?
**A.** 80%

**Q.** What about the viability, T/C [32] of the same compound?
**A.** 106%

**Q.** And the viability, T/C [33]?
**A.** 76.2%

**Q.** And the viability, T/C [34]?
**A.** 112%

**Q.** What about the viability, T/C [35] of the same compound?
**A.** 71%

**Q.** What about the viability, T/C [36] of the same compound?
**A.** 20.3%
